{"source": "patent US4061776A", "about": "“Pharmaceutically active 2-omega-aminoalkoxydiphenyl ethers” (Mitsubishi Chemical Industries Ltd., priority 1976, dated 1977)", "key": {"[1]": {"test_system": "reserpine induced hypothermia", "experiment": "antagonism of reserpine (5 mg/kg i.p.) induced hypothermia (antireserpine/antidepressant activity) in mice", "type": "in vivo", "conditions": "for Antireserpine Activity in Mice, Relative Potency: reserpine 5 mg/kg i.p., Amitriptyline = 1; for antidepressant activity (in words): reserpine hypothermia", "experimental": "(§1) The compounds were administered intraperitoneally and activities of the compounds were compared with those of Amitriptyline."}, "[2]": {"test_system": "mice", "conditions": "i.p."}, "[3]": {"test_system": "neurological deficit as measured by traction test", "conditions": "mouse, in vivo, ip", "experimental": "as §1"}, "[4]": {"test_system": "neurological deficit as measured by traction test", "experiment": "CNS depressant activity, neurological deficit by traction test (muscle relaxant action) in mice", "conditions": "Mus musculus, ip, read-out: Muscle Relaxant Action ED50", "experimental": "as §1"}, "[5]": {"test_system": "tremorine induced tremor", "experiment": "central anticholinergic effect, tremorine induced tremor in mice", "conditions": "Mus musculus, ip, read-out: Antitremorine Effect ED50", "experimental": "as §1"}, "[6]": {"experiment": "in vivo", "conditions": "mouse, ip"}, "[7]": {"test_system": "electroshock induced tonic extensor", "experiment": "anticonvulsant activity, antagonism of electroshock induced tonic extensor in mice", "type": "in vivo", "conditions": "Mus musculus, ip, dose preventing 50% of response, read-out: Anti-Convulsant Activity ED50", "experimental": "as §1"}, "[8]": {"test_system": "tremorine induced tremor", "conditions": "mouse, in vivo, ip", "experimental": "as §1"}, "[9]": {"test_system": "spontaneous motor activity", "experiment": "CNS depressant activity, spontaneous motor activity measured by ANIMEX apparatus in mice", "conditions": "Mus musculus, ip, read-out: Spontaneous Motor Activity Depression ED50", "experimental": "as §1"}}, "note": "Structures can show the parent of a compound that is named as a salt.", "data": [{"smiles": "NCCCCOc1ccccc1Oc1ccccc1", "note": "[2-(4-aminobutoxy)diphenyl ether hydrochloride]", "values": [{"measurement": "Antireserpine Activity in Mice, Relative Potency", "setting": "[1]", "result": 0.28}]}, {"smiles": "CN(C)CCCOc1ccccc1Oc1ccccc1", "note": "[2-(3-dimethylaminopropoxy)diphenyl ether hydrochloride, reference compound]", "values": [{"measurement": "Antireserpine Activity in Mice, Relative Potency", "setting": "[1]", "result": 0.14}]}, {"smiles": "CN(C)CCC=C1c2ccccc2CCc2ccccc21", "note": "[Amitriptyline, reference compound]", "values": [{"measurement": "LD50", "setting": "[2]; Litchfield-Wilcoxon method", "result": 65, "unit": "mg/kg i.p."}]}, {"smiles": "CNCCCCOc1ccccc1Oc1ccccc1", "note": "[2-(4-methylaminobutoxy)diphenyl ether hydrochloride]", "values": [{"measurement": "CNS depressant action (in words)", "setting": "[3]", "result": "weak"}, {"measurement": "ED50", "setting": "[4]", "result": 60, "unit": "mg/kg"}, {"measurement": "ED50", "setting": "[5]", "result": 30, "unit": "mg/kg"}, {"measurement": "LD50", "setting": "[6]", "result": 100, "unit": "mg/kg"}, {"measurement": "ED50", "setting": "[7]", "result": 32, "unit": "mg/kg"}, {"measurement": "anticholinergic action (in words)", "setting": "[8]", "result": "weak"}, {"measurement": "ED50", "setting": "[9]", "result": 60, "unit": "mg/kg"}, {"measurement": "toxicity (in words)", "setting": "[2]", "result": "low toxicity"}, {"measurement": "Antireserpine Activity in Mice, Relative Potency", "setting": "[1]", "result": 1.10}, {"measurement": "antidepressant activity (in words)", "setting": "[1]", "result": "best activity of all compounds of the present invention tested"}, {"measurement": "antireserpine activity compared with Amitriptyline (in words)", "setting": "[1]; versus Amitriptyline", "result": "comparable to that of Amitriptyline"}]}, {"smiles": "CN(C)CCCCCOc1ccccc1Oc1ccccc1", "note": "[2-(5-dimethylaminopentyloxy)diphenyl ether hydrochloride]", "values": [{"measurement": "Antireserpine Activity in Mice, Relative Potency", "setting": "[1]", "result": 0.24}]}, {"smiles": "CN(C)CCCCOc1ccccc1Oc1ccccc1", "note": "[2-(4-dimethylaminobutoxy)diphenyl ether hydrochloride]", "values": [{"measurement": "LD50", "setting": "[6]", "result": 92, "unit": "mg/kg"}, {"measurement": "Antireserpine Activity in Mice, Relative Potency", "setting": "[1]", "result": 0.58}, {"measurement": "antidepressant activity (in words)", "setting": "[1]", "result": "best activity of all compounds of the present invention tested"}]}, {"smiles": "c1ccc(Oc2ccccc2OCCCCN2CCOCC2)cc1", "note": "[2-(4-morpholinobutoxy)diphenyl ether hydrochloride, reference compound]", "values": [{"measurement": "Antireserpine Activity in Mice, Relative Potency", "setting": "[1]", "result": 0.21}]}, {"smiles": "CNCCCOc1ccccc1Oc1ccccc1", "note": "[2-(3-methylaminopropoxy)diphenyl ether hydrochloride, reference compound]", "values": [{"measurement": "Antireserpine Activity in Mice, Relative Potency", "setting": "[1]", "result": 0.28}]}, {"smiles": "CNCCCCCOc1ccccc1Oc1ccccc1", "note": "[2-(5-methylaminopentyloxy)diphenyl ether hydrochloride]", "values": [{"measurement": "LD50", "setting": "[6]", "result": 85, "unit": "mg/kg"}, {"measurement": "Antireserpine Activity in Mice, Relative Potency", "setting": "[1]", "result": 0.57}, {"measurement": "antidepressant activity (in words)", "setting": "[1]", "result": "best activity of all compounds of the present invention tested"}]}]}
